The target of the test is human APJ receptor (Homo sapiens (Human), UniProt P35414). The test is described as follows: [35S]GTPγS binding assay on membranes from CHO cells stably expressing human APJ receptor. The class given is biochemical. The conditions noted are these: read-out: Activity hAPJ SPA EC50 IP. An outline of the steps: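 Membranes from CHO cells stably expressing FLAG-tagged human APJ; assay buffer GDP, MgCl2 and NaCl levels optimised beforehand. Incubation 90 min at RT, imager read-out. EC50 from non-linear regression on means of several independent experiments.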
Sequence of human APJ receptor (P35414 whole entry): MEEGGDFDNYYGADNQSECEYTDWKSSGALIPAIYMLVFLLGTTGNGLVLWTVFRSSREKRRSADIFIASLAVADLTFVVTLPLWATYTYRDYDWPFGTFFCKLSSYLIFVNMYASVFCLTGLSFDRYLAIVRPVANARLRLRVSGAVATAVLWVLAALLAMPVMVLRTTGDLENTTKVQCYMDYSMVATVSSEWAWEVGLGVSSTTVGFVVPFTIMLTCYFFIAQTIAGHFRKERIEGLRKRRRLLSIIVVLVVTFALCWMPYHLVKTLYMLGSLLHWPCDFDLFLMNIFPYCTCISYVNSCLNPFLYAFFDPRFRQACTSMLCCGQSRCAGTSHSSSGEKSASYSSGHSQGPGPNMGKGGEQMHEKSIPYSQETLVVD
Regarding `COC[C@@H]1COc2cc(F)c(F)cc2-c2nnc(NS(=O)(=O)[C@@H](C)[C@@H](OC(C)C)c3ncc(C)cn3)n21` (single isomer, unassigned) [Example 20.0, (1S,2S)-N-((5R)-9,10-difluoro-5-(methoxymethyl)-5,6-dihydro[1,2,4]triazolo[4,3-d][1,4]benzoxazepin-3-yl)-1-(5-methyl-2-pyrimidinyl)-1-(2-propanyloxy)-2-propanesulfonamide or (1S,2S)-N-((5S)-9,10-difluoro-5-(methoxymethyl)-5,6-dihydro[1,2,4]triazolo[4,3-d][1,4]benzoxazepin-3-yl)-1-(5-methyl-2-pyrimidinyl)-1-(2-propanyloxy)-2-propanesulfonamide], the 50% effective concentration (EC50) was determined as 990 nM.
Under `COC[C@@H]1COc2cc(F)c(F)cc2-c2nnc(NS(=O)(=O)[C@@H](C)[C@@H](OC(C)C)c3ncc(C)cn3)n21` (single isomer, unassigned) [Example 21.0, (1S,2S)-N-((5R)-9,10-difluoro-5-(methoxymethyl)-5,6-dihydro[1,2,4]triazolo[4,3-d][1,4]benzoxazepin-3-yl)-1-(5-methyl-2-pyrimidinyl)-1-(2-propanyloxy)-2-propanesulfonamide or (1S,2S)-N-((5S)-9,10-difluoro-5-(methoxymethyl)-5,6-dihydro[1,2,4]triazolo[4,3-d][1,4]benzoxazepin-3-yl)-1-(5-methyl-2-pyrimidinyl)-1-(2-propanyloxy)-2-propanesulfonamide] stands 3400 nM; under `COC[C@@H]1COc2ccc(F)cc2-c2nnc(NS(=O)(=O)[C@@H](C)[C@@H](OC(C)C)c3ncc(C)cn3)n21` (single isomer, unassigned) [Example 25.0, (1S,2S)-N-((5R)-10-fluoro-5-(methoxymethyl)-5,6-dihydro[1,2,4]traizolo[4,3-d][1,4]benzoxazepin-3-yl)-1-(5-methyl-2-pyrimidinyl)-1-(2-propanyloxy)-2-propanesulfonamide or (1S,2S)-N-((5S)-10-fluoro-5-(methoxymethyl)-5,6-dihydro[1,2,4]traizolo[4,3-d][1,4]benzoxazepin-3-yl)-1-(5-methyl-2-pyrimidinyl)-1-(2-propanyloxy)-2-propanesulfonamide], 28 nM.
For `COC[C@@H]1COc2ccc(F)cc2-c2nnc(NS(=O)(=O)[C@@H](C)[C@@H](OC(C)C)c3ncc(C)cn3)n21` (single isomer, unassigned) [Example 26.0, (1S,2S)-N-((5R)-10-fluoro-5-(methoxymethyl)-5,6-dihydro[1,2,4]triazolo[4,3-d][1,4]benzoxazepin-3-yl)-1-(5-methyl-2-pyrimidinyl)-1-(2-propanyloxy)-2-propanesulfonamide or (1S,2S)-N-((5S)-10-fluoro-5-(methoxymethyl)-5,6-dihydro[1,2,4]triazolo[4,3-d][1,4]benzoxazepin-3-yl)-1-(5-methyl-2-pyrimidinyl)-1-(2-propanyloxy)-2-propanesulfonamide], the EC50 came to 460 nM.
With `COC[C@@H]1COc2ccc(F)cc2-c2nnc(NS(=O)(=O)[C@@H](C)[C@H](OC)c3ncc(C)cn3)n21` (single isomer, unassigned) [Example 27.0, (1R,2S)-N-((5R)-10-fluoro-5-(methoxymethyl)-5,6-dihydro[1,2,4]triazolo[4,3-d][1,4]benzoxazepin-3-yl)-1-methoxy-1-(5-methyl-2-pyrimidinyl)-2-propanesulfonamide or (1R,2S)-N-((5S)-10-fluoro-5-(methoxymethyl)-5,6-dihydro[1,2,4]triazolo[4,3-d][1,4]benzoxazepin-3-yl)-1-methoxy-1-(5-methyl-2-pyrimidinyl)-2-propanesulfonamide], the half-maximal effective concentration (EC50) was found to be 490 nM.
Regarding `COC[C@@H]1COc2ccc(F)cc2-c2nnc(NS(=O)(=O)[C@@H](C)[C@H](OC)c3ncc(C)cn3)n21` (single isomer, unassigned) [Example 28.0, (1R,2S)-N-((5R)-10-fluoro-5-(methoxymethyl)-5,6-dihydro[1,2,4]triazolo[4,3-d][1,4]benzoxazepin-3-yl)-1-methoxy-1-(5-methyl-2-pyrimidinyl)-2-propanesulfonamide or (1R,2S)-N-((5S)-10-fluoro-5-(methoxymethyl)-5,6-dihydro[1,2,4]triazolo[4,3-d][1,4]benzoxazepin-3-yl)-1-methoxy-1-(5-methyl-2-pyrimidinyl)-2-propanesulfonamide], the EC50 turned out to be 170 nM.
For `COC[C@@H]1COc2ncccc2-c2nnc(NS(=O)(=O)CCc3ncc(C)cn3)n21` (single isomer, unassigned) [Example 34.0, N-((5R)-5-(methoxymethyl)-5,6-dihydropyrido[3,2-f][1,2,4]triazolo[4,3-d][1,4]oxazepin-3-yl)-2-(5-methyl-2-pyrimidinyl)ethanesulfonamide or N-((5S)-5-(methoxymethyl)-5,6-dihydropyrido[3,2-f][1,2,4]triazolo[4,3-d][1,4]oxazepin-3-yl)-2-(5-methyl-2-pyrimidinyl)ethanesulfonamide] the value was 180 nM.
For `COC[C@@H]1COc2c(OC)cccc2-c2nnc(NS(=O)(=O)[C@@H](C)[C@@H](OC(C)C)c3ncc(C)cn3)n21` (single isomer, unassigned) [Example 38.0, (1S,2S)-N-((5R)-8-methoxy-5-(methoxymethyl)-5,6-dihydro[1,2,4]traizolo[4,3-d][1,4]benzoxazepin-3-yl)-1-(5-methyl-2-pyrimidinyl)-1-(2-propanyloxy)-2-propanesulfonamide or (1S,2S)-N-((5S)-8-methoxy-5-(methoxymethyl)-5,6-dihydro[1,2,4]triazolo[4,3-d][1,4]benzoxazepin-3-yl)-1-(5-methyl-2-pyrimidinyl)-1-(2-propanyloxy)-2-propanesulfonamide] the value was 64 nM; for `COC[C@@H]1COc2c(OC)cccc2-c2nnc(NS(=O)(=O)[C@@H](C)[C@@H](OC(C)C)c3ncc(C)cn3)n21` (single isomer, unassigned) [Example 39.0, (1S,2S)-N-((5R)-8-methoxy-5-(methoxymethyl)-5,6-dihydro[1,2,4]traizolo[4,3-d][1,4]benzoxazepin-3-yl)-1-(5-methyl-2-pyrimidinyl)-1-(2-propanyloxy)-2-propanesulfonamide or (1S,2S)-N-((5S)-8-methoxy-5-(methoxymethyl)-5,6-dihydro[1,2,4]traizolo[4,3-d][1,4]benzoxazepin-3-yl)-1-(5-methyl-2-pyrimidinyl)-1-(2-propanyloxy)-2-propanesulfonamide], 8 nM.
Under `COC[C@@H]1COc2ncccc2-c2nnc(NS(=O)(=O)[C@@H](C)[C@@H](OC(C)C)c3ncc(C)cn3)n21` (single isomer, unassigned) [Example 40.0] stands 86 nM; under `COC[C@@H]1COc2ncccc2-c2nnc(NS(=O)(=O)[C@@H](C)[C@@H](OC(C)C)c3ncc(C)cn3)n21` (single isomer, unassigned) [Example 41.0, (1S,2S)-N-((5R)-5-(methoxymethyl)-5,6-dihydropyrido[3,2-f][1,2,4]triazolo[4,3-d][1,4]oxazepin-3-yl)-1-(5-methyl-2-pyrimidinyl)-1-(2-propanyloxy)-2-propanesulfonamide or (1S,2S)-N-((5S)-5-(methoxymethyl)-5,6-dihydropyrido[3,2-f][1,2,4]triazolo[4,3-d][1,4]oxazepin-3-yl)-1-(5-methyl-2-pyrimidinyl)-1-(2-propanyloxy)-2-propanesulfonamide], 44 nM.
With `COC[C@@H]1COc2ncccc2-c2nnc(NS(=O)(=O)[C@@H](C)[C@@H](OC(C)C)c3ncc(Cl)cn3)n21` (single isomer, unassigned) [Example 44.0, (1S,2S)-1-(5-chloro-2-pyrimidinyl)-N-((5R)-5-(methoxymethyl)-5,6-dihydropyrido[3,2-f][1,2,4]triazolo[4,3-d][1,4]oxazepin-3-yl)-1-(2-propanyloxy)-2-propanesulfonamide or (1S,2S)-1-(5-chloro-2-pyrimidinyl)-N-((5S)-5-(methoxymethyl)-5,6-dihydropyrido[3,2-f][1,2,4]triazolo[4,3-d][1,4]oxazepin-3-yl)-1-(2-propanyloxy)-2-propanesulfonamide], the concentration for a half-maximal effect (EC50) came out at 15 nM.
Under `COC[C@@H]1COc2ncccc2-c2nnc(NS(=O)(=O)[C@@H](C)[C@@H](OC(C)C)c3ncc(Cl)cn3)n21` (single isomer, unassigned) [Example 45.0, (1S,2S)-1-(5-chloro-2-pyrimidinyl)-N-((5R)-5-(methoxymethyl)-5,6-dihydropyrido[3,2-f][1,2,4]triazolo[4,3-d][1,4]oxazepin-3-yl)-1-(2-propanyloxy)-2-propanesulfonamide or (1S,2S)-1-(5-chloro-2-pyrimidinyl)-N-((5S)-5-(methoxymethyl)-5,6-dihydropyrido[3,2-f][1,2,4]triazolo[4,3-d][1,4]oxazepin-3-yl)-1-(2-propanyloxy)-2-propanesulfonamide] stands 160 nM.
Under `Cc1cnc([C@H](OC(C)C)[C@H](C)S(=O)(=O)Nc2nnc3n2-c2ccccc2/C=C\CC3)nc1` (single isomer, unassigned) [Example 47.0, (P) (1S,2S)-N-((Z)-4,5-dihydrobenzo[g][1,2,4]triazolo[4,3-a]azocin-1-yl)-1-isopropoxy-1-(5-methylpyrimidin-2-yl)propane-2-sulfonamide or (M) (1S,2S)-N-((Z)-4,5-dihydrobenzo[g][1,2,4]triazolo[4,3-a]azocin-1-yl)-1-isopropoxy-1-(5-methylpyrimidin-2-yl)propane-2-sulfonamide] stands > 12500 nM; under `Cc1cnc([C@H](OC(C)C)[C@H](C)S(=O)(=O)Nc2nnc3n2-c2c(F)cccc2/C=C\CC3)nc1` (single isomer, unassigned) [Example 48.0, (P)(1S,2S)-N-((Z)-11-Fluoro-4,5-dihydrobenzo[g][1,2,4]triazolo[4,3-a]azocin-1-yl)-1-isopropoxy-1-(5-methylpyrimidin-2-yl)propane-2-sulfonamide or (M)(1S,2S)-N-((Z)-11-fluoro-4,5-dihydrobenzo[g][1,2,4]triazolo[4,3-a]azocin-1-yl)-1-isopropoxy-1-(5-methylpyrimidin-2-yl)propane-2-sulfonamide], > 12500 nM.

The values are drawn from patent US11149040B2, “Fused triazole agonists of the APJ receptor” (AMGEN INC., priority 2017, dated 2021).
